Here are results for 22 compounds from US8940900B2, “2,2,2-tri-substituted acetamide derivatives as glucokinase activators, their process and pharmaceutical application” (Advinus Therapeutics Private Limited, priority 2007, dated 2015).

Data set [1] addresses T1, purified human recombinant GK (Homo sapiens, UniProt P35557).
T1 sequence (P35557 1-465): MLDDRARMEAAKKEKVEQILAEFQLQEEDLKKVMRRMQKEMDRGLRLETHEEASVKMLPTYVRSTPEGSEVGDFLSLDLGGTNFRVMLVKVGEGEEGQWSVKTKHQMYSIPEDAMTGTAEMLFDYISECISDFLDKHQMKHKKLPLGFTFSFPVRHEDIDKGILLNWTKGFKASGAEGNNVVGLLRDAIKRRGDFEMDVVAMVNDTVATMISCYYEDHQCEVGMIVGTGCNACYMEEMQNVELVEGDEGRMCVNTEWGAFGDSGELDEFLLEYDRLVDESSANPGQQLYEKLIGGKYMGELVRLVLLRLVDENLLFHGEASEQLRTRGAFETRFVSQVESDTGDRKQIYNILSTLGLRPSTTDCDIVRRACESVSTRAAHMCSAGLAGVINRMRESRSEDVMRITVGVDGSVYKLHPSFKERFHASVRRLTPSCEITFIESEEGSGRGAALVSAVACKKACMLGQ
The data set can be described thus: Glucokinase activity, coupled enzymatic assay (NADH absorbance at 340 nm). In kind it is biochemical. To be noted: 5 mM glucose; read-out: EC50 values for GK activation at 5 mM Glucose conc. From the text: (§1) Glucokinase (GK) activity, in vitro, has been measured using a coupled enzymatic assay (Ref: Hariharan et al (1997) Diabetes 46: 11-16). GK catalyzes the first step, the conversion of glucose to glucose-6-phosphate (G6P) in the presence of ATP. G6P in turn is converted by glucose-6-phosphate dehydrogenase (G6PD) to 6-phosphogluconate, a process that requires NAD, resulting in NADH formation. Since the GK-catalyzed step is the rate-limiting step of this coupled enzymatic process, the rate of accumulation of 6-phosphogluconate and NADH is directly proportional to the rate of glucose phosphorylation by GK. The rate of the GK-catalyzed reaction can therefore be measured by monitoring the increase in NADH absorbance at 340 nm.
(§2) The assay is carried out according to the protocol outlined in Hariharan et al (1997), Diabetes 46: 11-16. Briefly, the test compounds are incubated in a reaction mix containing 25 mM HEPES (pH 7.2), 10 mM MgCl2, 100 mM KCl, 5 mM ATP, 2 mM DTT, 0.5 mM NAD, 1 U/ml Leuconostoc mesenteroides G6PD, 0.3 U/ml of purified human recombinant GK, and different concentrations of glucose. Enzymatic activity is calculated from the initial reaction velocity, measured from the change in NADH absorbance as a function of time.
Compounds described in formula (I), in concentration ranges from 1.0 nM to 500 μM, are tested in purified human recombinant Glucokinase assay described above.
A compound is considered to be a glucokinase activator if it, in its testable range of concentrations, yields a higher rate of glucose phosphorylation than in its absence.

Data set [2] has as its target T1, purified human recombinant GK. The data set can be described thus: Characterization of partial glucokinase activators: dose dependent effect on % ΔS0.5 of glucokinase for glucose. In kind it is biochemical. The following applies: for EC50: sigmoidal fit of % ΔS0.5 vs log concentration, read-out: EC50 (measured against % ΔS0.5); for Classification as partial or full GK activator: compared to Ro-28-1675, partial = S0.5 shift between 20% and 90%, full = 90% or more. The procedure:
The ΔS0.5 is then normalized to a percent scale, where the S0.5 in the vehicle control is set to 0% and 0 mM glucose is set to 100%. […] The EC50 of % change in S0.5 is obtained from the sigmoidal fit of the data.
The change in the S0.5 of glucokinase (ΔS0.5) for glucose in the presence of Examples A11, O15 and J1 is calculated by subtracting the S0.5 at each concentration of each Example from the S0.5 in the vehicle control. The ΔS0.5 is then normalized to a percent scale, where the S0.5 in the vehicle control is set to 0% and 0 mM glucose is set to 100%. The % ΔS0.5 is then plotted against the log of the concentration of each Example.
FIG. 2B illustrates such a derived plot, taking S0.5 data from FIG. 2A.
as §1, §2
Compounds of interest are tested in GK assay to monitor dose dependent effect on Glucokinase activation (in kinetic mode), as described above, at various glucose concentration.

The next data set has as its system primary rat hepatocytes. The experiment in a line: Glycogen synthesis in primary rat hepatocytes. It counts as cell-based. To be noted: 3 hours, over DMSO control. How it is done: Primary hepatocytes are collected from male Wistar rats, and tested for viability by trypan blue exclusion. […] The medium is then replaced with fresh MEM (serum-free) containing 2 μCi/ml of D-[U^14C]-Glucose along with 10 μM of the compound in a final DMSO concentration of 0.1%. The final glucose concentration is brought to 10 mM by the addition of D-Glucose (MEM already contains 5 mM glucose). The cells are incubated for 3 hours at 37° C. […] After another round of centrifugation, the supernatant is removed, and the pellet containing the precipitated glycogen is dried overnight. De novo synthesized glycogen is estimated in a scintillation counter (MicroBeta Trilux, Perkin Elmer), and expressed as fold increase over DMSO control.
The protocol for isolation of primary rat hepatocytes is based on the method described in “Methods in Enzymology, Vol. III. pp 34-50. Ed. by S. P. Colowick and N. O. Kaplan.
Compounds described in formula (I), in concentration ranges from 1.0 nM to 500 μM, are tested in glycogen synthesis assay described above.

The mark [3] stands for this setting: Table 4, partial glucokinase activators.
The mark [4] stands for this setting: Table 3, vehicle S0.5 = 0%, 0 mM glucose = 100%.

As for “2-(2,4-Difluoro-phenoxy)-2-methyl-N-(1H tetrazol-5-yl)-propionamide [Example A27]”, in data set [1], the EC50 (as a rule, the concentration that produces a half-maximal response) stood at 7 µM.
Turning to `CC(C)(Oc1ccc2ccccc2c1)C(=O)Nc1nccs1` [Example A5, 2-Methyl-2-(naphthalen-2-yloxy)-N-thiazol-2-yl-propionamide], the melting point – broadly, the temperature, or range, at which the solid turns liquid – lay in the range of 117 to 118 °C.
Turning to `CC(C)(Oc1ccc2c(c1)OCO2)C(=O)Nc1ncc(Cl)s1` [Example A10, 2-(Benzo[1,3]dioxol-5-yloxy)-N-(5-chloro-thiazol-2-yl)-2-methyl-propionamide], the EC50 in data set [1] was 2.2 µM. For the same compound, the maximal effect (Emax) (as a rule, the size of the effect at its maximum, as opposed to the concentration needed) in data set [2] (setting [3]) is 75%.
Turning to `CC(C)(Oc1ccc(F)cc1F)C(=O)Nc1ncc(Cl)s1` [Example A11, N-(5-Chloro-thiazol-2-yl)-2-(2,4-difluoro-phenoxy)-2-methyl-propionamide], the EC50 in data set [1] was 1.8 µM; in data set [2] (Table 3) it was 1.25 µM. In data set [2] (setting [4]), the maximal effect (Emax) was determined as 7%. The “Classification as partial or full GK activator” value (“Classification” for short) in data set [2] is “partial GK activators”.
`CC(C)(Oc1ccc2[nH]ccc2c1)C(=O)Nc1ncc(Cl)s1` [Example A17, N-(5-Chloro-thiazol-2-yl)-2-(1H-indol-5-yloxy)-2-methyl-propionamide]: in the data set on primary rat hepatocytes (Table 2, 10 mM glucose), the “Fold increase in glycogen synthesis at 10 μM Compound” value (shortened to “Fold increase in glycogen synthesis”) amounted to 2.9 fold.
For the compound `CC(C)(Oc1ccc(F)cc1F)C(=O)Nc1ncc(F)s1` [Example A22, 2-(2,4-Difluoro-phenoxy)-N-(5-fluoro-thiazol-2-yl)-2-methyl-propionamide], the “Fold increase in glycogen synthesis” value with primary rat hepatocytes (Table 5, 10 mM glucose) is reported as 2.3 fold.
As to `CCC(C)(Oc1ccc(F)cc1F)C(=O)Nc1ncc(Cl)s1` (stereo not shown) [Example G7, N-(5-Chloro-thiazol-2-yl)-2-(2,4-difluoro-phenoxy)-2-methyl-butyramide], the EC50 in data set [1] was determined as 7.1 µM. Moreover, the maximum response (Emax) in data set [2] (setting [3]) turned out to be 60%.
`CCC(C)(Oc1ccc(F)cc1F)C(=O)Nc1nc(CC(=O)O)cs1` (stereo not shown) [Example H1, {2-[2-(2,4-Difluoro-phenoxy)-2-methyl-butyrylamino]-thiazol-4-yl}-acetic acid]: the melting point fell in the range of 148 to 149 °C.
For `CC(C)(Oc1ccc(F)cc1F)C(=O)Nc1nc(CC(=O)Nc2ccc(F)cc2)cs1` [Example J1, 2-(2,4-Difluoro-phenoxy)-N-{4-[(4-fluoro-phenylcarbamoyl)-methyl]-thiazol-2-yl}-2-methyl-propionamide], the EC50 stood at 4.5 µM in data set [1] and 3 µM in data set [2] (Table 3). The Emax in data set [2] (setting [4]) was determined as 55%. Besides, the “Classification” value in data set [2] was “partial GK activators”.
Consider `CC(C)(Oc1ccc(F)cc1F)C(=O)Nc1nc(CC(=O)Nc2ccc(F)cc2)c(Cl)s1` [Example J4, N-{5-Chloro-4-[(4-fluoro-phenylcarbamoyl)-methyl]-thiazol-2-yl}-2-(2,4-difluoro-phenoxy)-2-methyl-propionamide], for which the Emax in data set [2] (setting [3]) is 50%.
As to `CC(C)(Oc1cccc(C(=O)O)c1)C(=O)Nc1nccs1` [Example K1, 3-[1-Methyl-1-(thiazol-2-ylcarbamoyl)-ethoxy]-benzoic acid], the melting point was in the range of 166 to 168 °C.
On to `CC(Oc1ccc(F)cc1F)(C(=O)Nc1nccs1)c1ccc(S(C)(=O)=O)cc1` (stereo not shown) [Example O1, 2-(2,4-Difluoro-phenoxy)-2-(4-methanesulfonyl-phenyl)-N-thiazol-2-yl-propionamide], for which the melting point is 89 to 90 °C.
The compound `CSc1ccc(OC(C)(C(=O)Nc2ncc(Cl)s2)c2ccc(S(C)(=O)=O)cc2)cc1` (stereo not shown) [Example O4, N-(5-Chloro-thiazol-2-yl)-2-(4-methanesulfonyl-phenyl)-2-(4-methylsulfanyl-phenoxy)-propionamide] had a melting point of 67 to 68 °C.
As for `CC(Oc1ccc(F)cc1F)(C(=O)Nc1ncc(F)s1)c1ccc(S(C)(=O)=O)cc1` (stereo not shown) [Example O9, 2-(2,4-Difluoro-phenoxy)-N-(5-fluoro-thiazol-2-yl)-2-(4-methanesulfonyl-phenyl)-propionamide], the “Fold increase in glycogen synthesis” value in the data set on primary rat hepatocytes (Table 5, 10 mM glucose) worked out at 2.8 fold.
With `CC(Oc1ccc(F)cc1F)(C(=O)Nc1ncc(Cl)s1)c1ccc(S(=O)(=O)C2CC2)cc1` (stereo not shown) [Example O15, N-(5-Chloro-thiazol-2-yl)-2-(4-cyclopropanesulfonyl-phenyl)-2-(2,4-difluoro-phenoxy)-propionamide], the concentration for a half-maximal effect (EC50) was 1.8 µM in data set [1] and 1.2 µM in data set [2] (Table 3). Besides, in data set [2] (setting [4]), the Emax is 55%. In addition, in data set [2], the “Classification” value was “partial GK activators”.
Turning to `Cc1cnc(NC(=O)C(C)(Oc2ccc(F)cc2F)c2ccc(S(C)(=O)=O)cc2)s1` (stereo not shown) [Example O16, 2-(2,4-Difluoro-phenoxy)-2-(4-methanesulfonyl-phenyl)-N-(5-methyl-thiazol-2-yl)-propionamide], the EC50 in data set [1] came to 5.4 µM.
For the compound `CC(Oc1ccc(Cl)cc1)(C(=O)Nc1ncc(Cl)s1)c1ccc(S(C)(=O)=O)cc1` (stereo not shown) [Example O18, 2-(4-Chloro-phenoxy)-N-(5-chloro-thiazol-2-yl)-2-(4-methanesulfonyl-phenyl)-propionamide], the Emax in data set [2] (setting [3]) stood at 60%.
Regarding `CC(Oc1ccc(F)cc1F)(C(=O)Nc1ncc(Cl)s1)c1ccc(S(C)(=O)=O)cc1` (stereo not shown) [Example O19, N-(5-Chloro-thiazol-2-yl)-2-(2,4-difluorophenoxy)-2-(4-methanesulfonyl-phenyl)-propionamide], the maximal response (Emax) in data set [2] (setting [3]) is 75%.
Take `CC(Oc1ccc(F)c(F)c1)(C(=O)Nc1ncc(Cl)s1)c1ccc(S(C)(=O)=O)cc1` (stereo not shown) [Example O20, N-(5-Chloro-thiazol-2-yl)-2-(3,4-difluoro-phenoxy)-2-(4-methanesulfonyl-phenyl)-propionamide]: in data set [2] (setting [3]), the Emax is 50%.
Turning to `CC(Oc1ccc(F)cc1F)(C(=O)Nc1nc(CC(=O)O)c(Cl)s1)c1ccc(S(C)(=O)=O)cc1` (stereo not shown) [Example P1, {5-Chloro-2-[2-(2,4-difluoro-phenoxy)-2-(4-methanesulfonyl-phenyl)-propionylamino]-thiazol-4-yl}-acetic acid], the melting point is 109 to 111 °C. For the same compound, the half-maximal effective concentration (EC50) in data set [1] was 7 µM.
For `CC(Oc1ccc(F)cc1F)(C(=O)Nc1ccc(C(=O)O)cn1)c1ccc(S(C)(=O)=O)cc1` (stereo not shown) [Example P4, 6-[2-(2,4-Difluoro-phenoxy)-2-(4-methanesulfonyl-phenyl)-propionylamio]-nicotinic acid], the concentration for a half-maximal effect (EC50) in data set [1] is > 14 µM.
In the case of `CC(Oc1ccc(F)cc1F)(C(=O)Nc1ccc(C(=O)O)cn1)c1ccc(S(=O)(=O)C2CC2)cc1` (stereo not shown) [Example P5, 6-[2-(4-Cyclopropanesulfonyl-phenyl)-2-(2,4-difluoro-phenoxy)-propionylamino]-nicotinic acid], in the data set on primary rat hepatocytes (Table 2, 10 mM glucose), the “Fold increase in glycogen synthesis” value is 3.2 fold.
